Laboratory results published in patent US8829014B2, “Thiazole and thiophene analogues, and their use in treating autoimmune diseases and cancers” (Board of Supervisors of Louisiana State University and …, priority 2006, dated 2014).
Marks after values point to notes of the source that are not given here.

Legend:
Format in all cases: cell-based
[1] = test system: NF-κB; assay: TNF-α-induced NF-κB-dependent luciferase expression in HEK cells; design: NF-κB % inhibition: concentration or dose not given beside the values; conditions: TNF-α-induced; compound added 1 h before inducer, luciferase 24 h later; normalized to DMSO vehicle
[2] = test system: AP-1; assay: PMA-induced AP-1 luciferase expression in HEK cells; conditions: PMA-induced; compound added 1 h before inducer, luciferase 24 h later; normalized to DMSO vehicle
[3] = test system: Human umbilical vein endothelial cells (HUVEC); assay: Trypan blue viability count in HUVEC; conditions: HUVEC, 10 μM, 48 h, relative to vehicle
Method: (§1) Additional compounds have also been tested for their ability to inhibit both TNF-α-induced NF-κB—expression and PMA-induced AP-1 expression. In both tests, the compound was added for 1 h, then the appropriate inducer was added, and luciferase activity was monitored 24 h later. Values were then normalized to the vehicle control, DMSO. Following the initial luciferase screens, studies were conducted to assess the cytotoxicity of the compounds in normal cells such as VSMC, HUVEC, or HPT cells. Human umbilical vein endothelial cells (HUVEC) represent the normal endothelium, vascular smooth muscle cells (VSMC) were represented by cells from the adult rat aorta, and human proximal tubule (HPT) cells represent the normal proximal tubule in vivo. These cells were grown to near confluency in multi-well plates, and were then treated for 48 h with either vehicle (0.1% DMSO) or 10 μM of each drug candidate. Following treatment, the media from the VSMC and HUVEC incubations were removed, and the amount of lactate dehydrogenase (LDH) released into the medium was determined with a commercial kit. LDH is normally confined to the cytosol, and its release represents “leakiness” of the plasma membrane. LDH activity was expressed as % increase over vehicle-treated cells. In another assay of viability, the treated VSMC and HUVEC were removed by trypsinization and treated with trypan blue, a dye that is taken up only by dead cells. The number of both live and dead cells was counted using an automated cell viability analyzer. The % decrease in numbers of viable cells was determined. Toxicity in the treated HPT cells was determined by the ethidium homodimer (EthHD) uptake assay. EthHD is a fluorescent dye that is excluded from live cells, but is taken up by cells that have lost permeability barriers. Inside the cell, EthHD produces a strong fluorescent signal, which is proportional to the number of dead cells. Results were expressed as a % increase in cell death over vehicle-treated cells. The lead compounds were also tested in two pairs of cell lines from either the skin or prostate, one tumorigenic and one non-tumorigenic, to test for any differences in toxicity or heightened sensitivity in the tumorigenic lines. The cells were treated for 48 h with vehicle (0.1% DMSO) or 10 μM of each drug candidate. Following treatment, the viability of the cells was determined by the MTT assay. In this assay, the MTT dye is converted only in viable cells by intracellular enzymes to a colorimetric product that is quantitated by a microplate reader.

[4] = test system: human proximal tubule (HPT) cells; assay: Ethidium homodimer (EthHD) uptake toxicity assay in HPT cells; conditions: 10 μM, 48 h, relative to vehicle
Method: as §1
(§2) For the results in Table 13, cells were grown to near confluency in multi-well plates, then treated for 48 h with either vehicle (0.1% DMSO) or 10 μM of each drug candidate. Following treatment, the media from the VSMC and HUVEC incubations were removed, and the amount of lactate dehydrogenase (LDH) released into the medium was determined with a commercial kit and expressed as a % increase over vehicle-treated cells. HPT toxicity was determined by the ethidium homodimer (EthHD) uptake assay. Inside the cell, EthHD produces a strong fluorescent signal, which is proportional to the amount of cell death, expressed as a % increase in cell death over vehicle-treated cells. The lead compounds were also tested in two pairs of cell lines from the skin or prostate, one tumorigenic and one non-tumorigenic, to test for differing toxicity or heightened sensitivity in the tumorigenic lines. The cells were treated for 48 h with vehicle (0.1% DMSO) or 10 μM of each drug candidate, and the viability of the cells was determined by the MTT assay, expressed as a % decrease in viability compared to vehicle-treated cells. The in vivo inflammation model measured the % inhibition of rat paw edema induced by carageenan injection.

[5] = test system: Human umbilical vein endothelial cells (HUVEC); assay: LDH release cytotoxicity in HUVEC; conditions: HUVEC, 10 μM, 48 h, relative to vehicle
Method: as §1, §2

[6] = test system: vascular smooth muscle cells (VSMC); assay: LDH release cytotoxicity in VSMC; conditions: VSMC, 10 μM, 48 h, relative to vehicle
Method: as §1, §2

[7] = test system: cell lines from the skin, one tumorigenic and one non-tumorigenic; assay: MTT viability in skin cell line pair, tumorigenic and non-tumorigenic
Method: as §1, §2

[8] = test system: vascular smooth muscle cells (VSMC); assay: Trypan blue viability count in VSMC; conditions: VSMC, 10 μM, 48 h, relative to vehicle
Method: as §1

Structure (SMILES)	NF-κB % inhibition [1]	AP-1 % inhibition [2]	Viable Cells % Decrease HUVEC [3]	Cell Death (EthHD) % Increase HPT [4]	LDH release % Increase HUVEC [5]	LDH release % Increase VSMC [6]	Viability (MTT) % Decrease HaCaT [7]	Viability (MTT) % Decrease SRB12-p9 [7]	Viable Cells % Decrease VSMC [8]
Cc1cccc(-n2c(-c3sc(NC(=O)c4ccccc4)nc3-c3ccccc3)nc3ccccc3c2=O)c1 [PMCR45]	42%	63** %	41# %	49# %	123# %	116# %	19%	20%	67# %
COC(=O)Nc1nc(-c2ccccc2)c(-c2nc3ccccc3c(=O)n2-c2ccccc2Cl)s1 [PMCR122]	55** %	66** %	32# %	210# %	37# %	20%	6%	11%	45# %
CNc1nc(C)c(-c2nc3ccccc3c(=O)n2-c2ccccc2C)s1 [PMCR19]	18%	67** %	20%	63# %	14%	4%	6%	21%	29# %
O=c1c2ccccc2nc(-c2cc(-c3ccncc3)c(N3CCOCC3)s2)n1-c1ccccc1Cl [PMCR224]	80** %	45%	43# %	266# %	28# %	18%	−4%	13%	63# %
Cc1nc(Nc2ccc(Cl)cc2)sc1-c1nc2ccccc2c(=O)n1-c1ccccc1Cl [PMCR120]	60** %	27%	16%	17%	6%	11%	−4%	85# %	13%
Cc1ccccc1-n1c(-c2cc(-c3ccncc3)c(N3CCOCC3)s2)nc2ccccc2c1=O [PMCR188]	53%	0%	60# %	250# %	160# %	148# %	0%	0%	92# %
CC(=O)c1ccc(-n2c(-c3cc(-c4ccncc4)c(N4CCOCC4)s3)nc3ccccc3c2=O)cc1 [PMCR242]	66** %	84** %	60# %	50# %	61# %	68# %	−28%	14%	90# %
